According to patent US20210108197A1, “SHRNA EXPRESSION CASSETTE, POLY[…] CARRYING SAME, AND APPLICATION THEREOF” (priority 2017, published 2021):

Assays:
[1] = test system: HBV; assay: In vivo pharmacodynamic experiment, HBV DNA in serum; set-up: species or system HBV transgenic BALB/c; conditions: intravenous injection, LAM 150 mg/kg, ETV 3.2 mg/kg, intron2 3 × 10^10, intron5 1.5 × 10^11 vg/animal, relative, D 0 = 1
Experimental: (§1) Two drugs having two structures scAAV2/8-H1-shRNA2-intron2 and scAAV2/8-H1-shRNA2-intron5 were compared with the commercial drugs lamivudine and entecavir for evaluating in vivo efficacy. The administration mode was intravenous injection, and 14 days was a blood collection period. After separating serum samples, HBsAg and HBV DNA were detected. The grouping of animal experiments is shown as follows:
(§2) The experiment was conducted for total of […] (38 weeks). For the experimental method, see Example 2 “4. Expression and detection of target gene” The detection results are shown in FIG. 40 and Table 2-12 (BsAg detection), and FIG. 41 and Table 2-13 (BV DNA detection).

[2] = test system: HBV; assay: In vivo pharmacodynamic experiment, HBsAg in serum; set-up: species or system HBV transgenic BALB/c; conditions: intravenous injection, LAM 150 mg/kg, ETV 3.2 mg/kg, intron2 3 × 10^10, intron5 1.5 × 10^11 vg/animal, relative, D 0 = 1
Experimental: as §1, §2

| SMILES | HBV DNA detection in serum, D 0 [1] | HBV DNA detection in serum, D 14 [1] | HBV DNA detection in serum, D 28 [1] | HBV DNA detection in serum, D 35 [1] | HBV DNA detection in serum, D 49 [1] | HBV DNA detection in serum, D 70 [1] | HBV DNA detection in serum, D 98 [1] | HBV DNA detection in serum, D 126 [1] | HBV DNA detection in serum, D 154 [1] | HBV DNA detection in serum, D 182 [1] | HBV DNA detection in serum, D 210 [1] | HBV DNA detection in serum, D 238 [1] | HBV DNA detection in serum, D 266 [1] | HBsAg detection in serum, D 0 [2] | HBsAg detection in serum, D 14 [2] | HBsAg detection in serum, D 28 [2] | HBsAg detection in serum, D 35 [2] | HBsAg detection in serum, D 49 [2] | HBsAg detection in serum, D 70 [2] | HBsAg detection in serum, D 98 [2] | further results |
| --- | --- | --- | --- | --- | --- | --- | --- | --- | --- | --- | --- | --- | --- | --- | --- | --- | --- | --- | --- | --- | --- |
| C=C1[C@H](CO)[C@@H](O)C[C@@H]1n1cnc2c(=O)[nH]c(N)nc21 [ETV, Entecavir] | 1 | 8.68 | 1.24 | 1.08 | 1.25 | 3.93 | 1.05 | 0.72 | 1.06 | 3.33 | 5.5 | 2.96 | 1.55 | 1 | 1.51 | 1.55 | 1.8 | 1.4 | 1.33 | 1.34 | HBsAg detection in serum, D 126 [2]: 1.48; HBsAg detection in serum, D 154 [2]: 0.75; HBsAg detection in serum, D 182 [2]: 0.81; HBsAg detection in serum, D 210 [2]: 1.57; HBsAg detection in serum, D 238 [2]: 0.83; HBsAg detection in serum, D 266 [2]: 0.94 |
| Nc1ccn([C@@H]2CS[C@H](CO)O2)c(=O)n1 [LAM, Lamivudine] | 1 | 0.69 | 0.87 | 0.72 | 0.68 | 1.26 | 0.41 | 0.24 | 0.56 | 0.8 | 0.28 | 0.26 | 0.07 | 1 | 0.98 | 0.96 | 1.23 | 1.21 | 1.01 | 1.19 | HBsAg detection in serum, D 126 [2]: 1.46; HBsAg detection in serum, D 154 [2]: 0.66; HBsAg detection in serum, D 182 [2]: 0.76; HBsAg detection in serum, D 210 [2]: 1.16; HBsAg detection in serum, D 238 [2]: 0.5; HBsAg detection in serum, D 266 [2]: 0.54 |
